Results taken from patent publication US20210353624A1, “METHOD OF TREATING CANCER WITH TELOTRISAT OR A PRODRUG THEREOF” (TerSera Therapeutics LLC, priority 2020, published 2021).
Several values for one entry are separate records, joined by “and”; a condition that tells them apart may be missing. Equal values may be shown once.

Columns and labels:
[1] = tested on: locally advanced or metastatic neuroendocrine tumors (NETs); test: Retrospective single arm chart review (TELEACE): tumor progression, PFS, tumor size; assay type: in vivo, human; set-up: patients with progression-free survival (without tumor progression or death) (%) / Progression-free survival: Patients without outcome (%): concentration or dose not given beside the values; details: for Difference in tumor size between pre and post-TE initiation, Estimate: longitudinal generalized linear regression (GEE), 95% CI (−16.1%, −0.2%), P=0.045, negative = decrease; for patients with progression-free survival (without tumor progression or death) (%) / patients without tumor progression (%): overall population
Text: This example provides a retrospective, single arm study of patients with locally advanced or metastatic neuroendocrine tumors (NETs) and documented carcinoid syndrome (CS). The patients received telotristat ethyl for at least 6 months. […] This example reports progression-free survival (PFS), time to tumor progression, changes in carcinoid syndrome (CS) symptoms, and indictors of overall health.
Patients with poorly differentiated neuroendocrine tumors, mixed tumor types or conflicting clinical trial enrollment were excluded. Descriptive statistics, Kaplan-Meier and Chi-square tests were used to evaluate PFS, tumor progression, changes in CS symptoms, body weight and Eastern Cooperative Oncology Group (ECOG) performance status before and after telotristat ethyl initiation. Subgroup analyses were conducted in patients with the same pre- and post-telotristat ethyl background treatment.
Adults with unresectable locally advanced or metastatic neuroendocrine tumors and evidence of carcinoid syndrome documented in their medical chart were eligible for inclusion if they had received telotristat ethyl for at least 6 months and had any additional carcinoid syndrome and neuroendocrine tumor treatment information available for at least six months after telotristat ethyl initiation or until death. The presence of carcinoid syndrome was based on the participating physician's assessment of information contained in the medical charts. Participating physicians were recruited by a professional recruiting organization (Dynata, Plano, Tex., USA) and had to have treated at least one eligible patient with telotristat ethyl in the past 12 months in order to participate. Eligible records had to have documented tumor size and tumor response assessments before and after telotristat ethyl initiation, including at least two radiological scans in the 12 months before telotristat ethyl and at least one scan after telotristat ethyl initiation. Patients with a histologically poorly differentiated neuroendocrine tumor based on grade (G3) or Ki67 index >20%, mixed tumor types according to physician notes, or documented enrollment in any clinical trial during the 6 months after telotristat ethyl initiation were excluded.
Time to tumor progression was defined as the time from telotristat ethyl initiation to the first documented tumor progression in the medical chart. […] Progression-free survival (PFS) was defined as the time from telotristat ethyl initiation to tumor progression or death. […] Physician-assessed changes in body weight, Eastern Cooperative Oncology Group (ECOG) Performance Status, and CS symptoms including diarrhea, flushing, abdominal pain, nausea and ascites were abstracted from medical charts before and after telotristat ethyl initiation.
In order to evaluate the effect of telotristat ethyl treatment on secondary clinical outcomes, analyses were conducted in the overall population and in a subgroup of patients who had the same documented non-telotristat ethyl neuroendocrine tumor treatment before and after telotristat ethyl initiation. Descriptive statistics summarized patient demographic and clinical characteristics, and changes in body weight and ECOG Performance Status after telotristat ethyl treatment initiation. Kaplan-Meier analyses estimated median time to tumor progression and median PFS. Chi-square test evaluated changes in documented CS symptoms (improved vs same/worsened) before and after telotristat ethyl initiation. All analyses were performed using SAS version 9.4 (SAS Institute, Cary, N.C., USA).
A radiological scan performed immediately before telotristat ethyl initiation was evaluated. A radiological scan performed post-telotristat ethyl was also examined. Paired t-test was used to calculate P-value for tumor size. Statistical significance (P<0.001) was also confirmed using Wilcoxon signed rank test. […]

[2] = tested on: normal cell lines: fallopian tube epithelium (FT240), ovarian surface epithelium (OSE22), first trimester placental fibroblasts (FTP); test: Cell confluence of normal cell lines grown with telotristat ethyl; assay type: cell-based; details: 0, 5, 15 and 30 μM telotristat ethyl, 24 to 96 hours
Experimental: This example provides experiments assessing the effects of telotristat ethyl on three aggressive cancer cell lines—liposarcoma (94T778), colon cancer (HT-29), and cholangiocarcinoma (TFK-1)—and three “normal” cell lines—fallopian tube epithelium (FT240), ovarian surface epithelium (OSE22), and first trimester placental fibroblasts (FTP).
The cells were grown with 0, 5, 15 and 30 μM telotristat ethyl, plated into four-chambered slides with an initial confluence of at least 30%, and cultured for 24 to 96 hours. At the end of each 24-hour period, cell density was measured with hematoxylin, and the presence of 5-HT was assessed by immunohistochemistry. Experiments were performed in triplicate. Cell confluence was determined, and the 5-HT expression was recorded as an H-score.

[3] = Physician assessed outcomes in TELEACE subgroup with worsening tumor status at TE initiation; assay type: in vivo, human
Text: A follow-up analysis of real-world clinical practice experience with TE was initiated in patients with physician-documented worsening tumor status based on radiological reports. The analysis was directed to the subgroup of patients from the TELEACE study with worsening tumor status at the time of TE initiation. Baseline carcinoid syndrome (CS) symptoms, Eastern Cooperative Oncology Group (ECOG) performance status, and weight were compared after at least six months of TE treatment.
A total of 33 patients (17%) in TELEACE had worsened tumor status at the time TE of initiation. The mean patient age was 60 years, with 58% female and 76% white. The majority of these patients had intermediate grade tumor (67%). Prior to TE initiation, 61% had received SSA treatment, and 33% had received other NET treatment, which included liver-directed therapy, surgery, chemotherapy, targeted therapy, and Peptide Receptor Radionuclide Therapy (PRRT). The average duration of TE treatment was 14±10.5 months. […] Additionally, a majority of patients had significant improvement/remained stable in CS symptoms, ECOG performance status, and weight after TE initiation (Table 6).

[4] = 6 months after TE initiation, listed as TE
[5] = 12 months after TE initiation, listed as TE
[6] = treatment subgroup n=65, 12 months
[7] = treatment subgroup n=65, 18 months

CCOC(=O)[C@@H](N)Cc1ccc(-c2cc(O[C@H](c3ccc(Cl)cc3-n3ccc(C)n3)C(F)(F)F)nc(N)n2)cc1 [telotristat ethyl, (S)-ethyl 2-amino-3-(4-(2-amino-6-((R)-1-(4-chloro-2-(3-methyl-1H-pyrazol-1-yl)phenyl)-2,2,2-trifluoroethoxy)pyrimidin-4-yl)phenyl)propanoate]
Tumor size (cm) Change from baseline, Mean ± SD ([1]; N=200, P<0.001): −0.5 ± 1.8 cm | Tumor size (cm) Post-TE initiation, Mean (IQR) ([1]; N=200, pre-TE 3.5 (2.3, 5.0)): 3.0 (2.0, 4.8) cm | Tumor size (cm) Post-TE initiation, Mean ± SD ([1]; N=200, pre-TE 3.9 ± 2.2): 3.4 ± 2.3 cm | patients with improved (responded completely or partially) tumor response post-TE initiation ([1]; among 33 patients with worsened (progressed) tumor response pre-TE initiation): 45% | average (SD) tumor size reduction ([1]; from scan immediately before TE initiation until last scan post-TE, P<0.001): 0.5 (1.8) cm | Difference in tumor size between pre and post-TE initiation, Estimate [1]: −8.5% | Difference in tumor size between pre and post-TE initiation, Estimate ([1]; listed as TE): −8.5% | median progression-free survival ([1]; overall population n=200, Kaplan-Meier, IQR 17.8, 39.8): 23.7 months | median time to tumor progression ([1]; overall population n=200, Kaplan-Meier, IQR 18.7, 39.8): 39.8 months | patients with progression-free survival (without tumor progression or death) (%) ([1]; 6 months after TE initiation): 90% and 89.5% | patients without tumor progression (%) ([1]; 6 months after TE initiation): 92% | patients with progression-free survival (without tumor progression or death) (%) [1, 4]: 89.5% | patients without tumor progression (%) [1, 4]: 92.0% | patients with progression-free survival (without tumor progression or death) (%) ([1]; 12 months after TE initiation): 80% and 79.9% | patients without tumor progression (%) ([1]; 12 months after TE initiation): 87% and 86.8% | patients with progression-free survival (without tumor progression or death) (%) [1, 5]: 79.9% | patients without tumor progression (%) [1, 5]: 86.8% | patients with progression-free survival (without tumor progression or death) (%) ([1]; 18 months after TE initiation): 72.1% | patients without tumor progression (%) ([1]; 18 months after TE initiation): 78.3% | Tumor progression: Patients without outcome (%) ([1]; treatment subgroup n=65 (same background treatment pre/post TE), 6 months): 100.0% | Progression-free survival: Patients without outcome (%) ([1]; treatment subgroup n=65, 6 months): 96.9% | Progression-free survival: Patients without outcome (%) [1, 6]: 87.5% | Tumor progression: Patients without outcome (%) [1, 6]: 90.4% | Progression-free survival: Patients without outcome (%) [1, 7]: 87.5% | Tumor progression: Patients without outcome (%) [1, 7]: 90.4% | cell confluence [2]: minimally impacted | Diarrhea: Improved ([3]; 33 patients with worsened tumor status at TE initiation, n = 26, P<0.001): 88% | CS symptoms compared to baseline measures ([3]; 33 patients with worsened tumor status, TE treatment 14±10.5 months): each patient experienced improvement in at least one CS symptom | Nausea: Remained the Same ([3]; worsened tumor status subgroup, n = 4): 20% | Nausea: Improved ([3]; worsened tumor status subgroup, n = 4, P=0.432): 80% | Abdominal pain: Remained the Same ([3]; worsened tumor status subgroup, n = 8): 11% | Abdominal pain: Improved ([3]; worsened tumor status subgroup, n = 8, P=0.020): 89% | Flushing: Remained the Same ([3]; worsened tumor status subgroup, n = 14): 18% | Flushing: Improved ([3]; worsened tumor status subgroup, n = 14, P=0.008): 82% | Diarrhea: Remained the Same ([3]; worsened tumor status subgroup, n = 26): 12% | Weight: Remained the Same ([3]; worsened tumor status subgroup, n = 31): 55% | Weight: Improved ([3]; worsened tumor status subgroup, n = 31, P=0.017): 32% | ECOG score: Remained the Same ([3]; worsened tumor status subgroup, n = 33): 73% | ECOG score: Improved ([3]; worsened tumor status subgroup, n = 33, P<0.001): 24%
